For this assay, the target named is endotheline receptor. The assay can be described thus: Activity on the endotheline receptor: displacement of 125I endotheline from rat brain membrane preparation. Type of assay: binding. The note with it: membrane preparation from rat posterior cortex and brain, 25° C., 60 minutes, 7 concentrations, read-out: IC50 (50% inhibiting concentration; concentration necessary to displace 50% of the specific radioactivity fixed on the receptor). How it is done: A membrane preparation was made from rat posterior cortex and brain and the tissue was ground with a POLYTRON in a 50 mM Tris buffer pH=7.4. After 30 minutes at 25° C. (W.B.), the homogenate was centrifuged at 30,000 g for 15 minutes (2 centrifugations with intermediate taking up in the Tris buffer pH 7.4). The deposits were suspended in an incubation buffer (Tris 25 mM, pepstatine A 5 microg/ml, aprotinine 3 microg/ml, PMSF 0.1 mM, EDTA 3 mM, EGTA 1 mM pH 7.4). 2 ml aliquots were distributed in hemolysis tubes and ^125 I endotheline (approximately 50,000 dpm/tube) and the product to be studied were added. The product was first tested at 3×10^-5 M in triplicate. When the product tested displaced more than 50% of radioactivity linked specifically to the receptor, it was tested again in a range of 7 concentrations to determine the concentration which inhibited the radioactivity linked specifically to the receptor by 50%. In this way, the 50% inhibiting concentration was determined.
The non-specific bond was determined by the addition of endotheline at 10^-6 M (in triplicate) and the deposits were incubated at 25° C. for 60 minutes, put in a water-bath at 0° C. for 5 minutes, filtered under reduced pressure and rinsed with a Tris buffer 7.4 pH. The radioactivity was counted in the presence of scintillating Triton. The result was expressed directly as a 50% inhibiting concentration (IC50), or the concentration of product studied expressed in nM necessary to displace 50% of the specific radioactivity fixed on the receptor studied.
Background: In a radioligand displacement assay an active substance lowers the binding of a labelled ligand.

Where a SMILES comes first, the peptide text is derived from it. Bridges are numbered along the chain shown (N, C = ends). [ ]: non-standard residue; d: D form. d2Nal = N[C@H](Cc1ccc2ccccc2c1)C(=O)O; Nle = CCCC[C@H](N)C(=O)O

In the case of `CC[C@H](C)[C@H](NC(=O)[C@H](CC(=O)O)NC(=O)[C@H](CCC(N)=O)NC(=O)[C@H](Cc1c[nH]cn1)NC(=O)[C@@H]1CSSC[C@H](N)C(=O)N[C@@H](CO)C(=O)N[C@H]2CSSC[C@H](NC(=O)[C@H](CCC(=O)O)NC(=O)[C@H](CCCCN)NC(=O)[C@H](CC(=O)O)NC(=O)[C@H](CCSC)NC(=O)[C@H](CC(C)C)NC(=O)[C@H](CO)NC(=O)[C@H](CO)NC2=O)C(=O)N[C@@H](CC(C)C)C(=O)N[C@@H](Cc2ccc(O)cc2)C(=O)N[C@@H](Cc2ccccc2)C(=O)N1)C(=O)N[C@H](C(=O)N[C@@H](Cc1c[nH]c2ccccc12)C(=O)O)[C@@H](C)CC` [Example 13] (H-CSCSSLMDKECLYFCHQDIIW-OH; disulfide 1-15, 3-11), the IC50 was found to be 3.5 nM.
The result for `CC[C@H](C)[C@H](NC(=O)[C@H](CC(=O)O)NC(=O)[C@H](CCCNC(=N)N)NC(=O)[C@H](Cc1c[nH]cn1)NC(=O)[C@@H]1CSSC[C@H](N)C(=O)N[C@@H]([C@@H](C)O)C(=O)N[C@H]2CSSC[C@H](NC(=O)[C@H](CCC(=O)O)NC(=O)[C@H](CCCCN)NC(=O)[C@H](CC(=O)O)NC(=O)[C@H]([C@@H](C)O)NC(=O)[C@H](CCSC)NC(=O)[C@H](CC(=O)O)NC(=O)[C@H](CCCCN)NC2=O)C(=O)N[C@@H](CC(C)C)C(=O)N[C@@H](Cc2ccc(O)cc2)C(=O)N[C@@H](Cc2ccccc2)C(=O)N1)C(=O)N[C@H](C(=O)N[C@@H](Cc1c[nH]c2ccccc12)C(=O)O)[C@@H](C)CC` [Example 15] (H-CTCKDMTDKECLYFCHRDIIW-OH; disulfide 1-15, 3-11 (inferred); N-terminus assumed) reads 1.8 nM; that for `CC[C@H](C)[C@H](NC(=O)[C@H](CC(=O)O)NC(=O)[C@H](CC(C)C)NC(=O)[C@H](Cc1c[nH]cn1)NC(=O)[C@H](CS)NC(=O)[C@H](Cc1ccc(O)cc1)NC(=O)CNC(=O)[C@H](CC(N)=O)NC(=O)[C@@H]1CCCN1C(=O)CNC(=O)[C@H](C)NC(=O)[C@H](CC(C)C)NC(=O)[C@@H](N)CS)C(=O)N[C@H](C(=O)N[C@@H](Cc1c[nH]c2ccccc12)C(=O)O)[C@@H](C)CC` [Example 10] (H-CLAGPNGYCHLDIIW-OH), 620 nM; that for `CCCC[C@@H]1NC(=O)[C@H](CC(C)C)NC(=O)[C@H](CO)NC(=O)[C@H](CO)NC(=O)[C@@H]2CSSC[C@H](NC(=O)[C@H](CCC(=O)O)NC(=O)[C@H](CCCCN)NC(=O)[C@H](CC(=O)O)NC1=O)C(=O)N[C@@H](C(C)C)C(=O)N[C@@H](Cc1ccc(O)cc1)C(=O)N[C@@H](Cc1ccccc1)C(=O)N[C@H](C(=O)N[C@@H](Cc1c[nH]cn1)C(=O)N[C@@H](CC(C)C)C(=O)N[C@@H](CC(=O)O)C(=O)N[C@H](C(=O)N[C@H](C(=O)N[C@H](Cc1ccc3ccccc3c1)C(=O)O)[C@@H](C)CC)[C@@H](C)CC)CSSC[C@H](N)C(=O)N[C@@H](CO)C(=O)N2` [Example 3, (Nle-7)-DiNaphtylalanine-21-ET1 derivative] (H-CSCSSL[Nle]DKECVYFCHLDII[d2Nal]-OH; disulfide 1-15, 3-11), 2 nM.
Take `CC[C@H](C)[C@H](NC(=O)[C@H](CC(=O)O)NC(=O)[C@H](CC(C)C)NC(=O)[C@H](Cc1c[nH]cn1)NC(=O)[C@@H]1CSSC[C@H](N)C(=O)N[C@@H](CC(C)C)C(=O)N[C@@H](C)C(=O)NCC(=O)N2CCC[C@H]2C(=O)N[C@@H](CC(N)=O)C(=O)NCC(=O)N[C@@H](Cc2ccc(O)cc2)C(=O)N1)C(=O)N[C@H](C(=O)N[C@@H](Cc1c[nH]c2ccccc12)C(=O)O)[C@@H](C)CC` [Example 9] (H-CLAGPNGYCHLDIIW-OH; disulfide 1-9): the IC50 came to 7500 nM.
As to `CC[C@H](C)[C@H](NC(=O)[C@H](CC(=O)O)NC(=O)[C@H](CC(C)C)NC(=O)[C@H](Cc1c[nH]cn1)NC(=O)[C@@H]1CSSC[C@H](N)C(=O)N[C@@H]([C@@H](C)O)C(=O)N[C@H]2CSSC[C@H](NC(=O)[C@H](CCC(=O)O)NC(=O)[C@H](CCCCN)NC(=O)[C@H](CC(=O)O)NC(=O)[C@H]([C@@H](C)O)NC(=O)[C@H](CCSC)NC(=O)[C@H](CC(=O)O)NC(=O)[C@H](CCCCN)NC2=O)C(=O)N[C@@H](C(C)C)C(=O)N[C@@H](Cc2ccc(O)cc2)C(=O)N[C@@H](Cc2ccccc2)C(=O)N1)C(=O)N[C@H](C(=O)N[C@@H](Cc1c[nH]c2ccccc12)C(=O)O)[C@@H](C)CC` [Example 11] (H-CTCKDMTDKECVYFCHLDIIW-OH; disulfide 1-15, 3-11), the IC50 worked out at 1.3 nM.
The result for `CCCC[C@@H]1NC(=O)[C@H](CC(C)C)NC(=O)[C@H](CO)NC(=O)[C@H](CO)NC(=O)[C@@H]2CSSC[C@H](NC(=O)[C@H](CCC(=O)O)NC(=O)[C@H](CCCCN)NC(=O)[C@H](CC(=O)O)NC1=O)C(=O)N[C@@H](C(C)C)C(=O)N[C@@H](Cc1ccc(O)cc1)C(=O)N[C@@H](Cc1ccccc1)C(=O)N[C@H](C(=O)N[C@@H](Cc1c[nH]cn1)C(=O)N[C@@H](CCC(N)=O)C(=O)N[C@@H](CC(=O)O)C(=O)N[C@H](C(=O)N[C@H](C(=O)N[C@@H](Cc1c[nH]c3ccccc13)C(=O)O)[C@@H](C)CC)[C@@H](C)CC)CSSC[C@H](N)C(=O)N[C@@H](CO)C(=O)N2` [Example 12] (H-CSCSSL[Nle]DKECVYFCHQDIIW-OH; disulfide 1-15, 3-11) reads 2.3 nM; that for `CCCC[C@@H]1NC(=O)[C@H](CC(C)C)NC(=O)[C@H](CO)NC(=O)[C@H](CO)NC(=O)[C@@H](N)CSSC[C@@H](C(=O)N[C@@H](Cc2c[nH]cn2)C(=O)N[C@@H](CC(C)C)C(=O)N[C@@H](CC(=O)O)C(=O)N[C@H](C(=O)N[C@H](C(=O)N[C@@H](Cc2c[nH]c3ccccc23)C(=O)O)[C@@H](C)CC)[C@@H](C)CC)NC(=O)[C@H](CCC(=O)O)NC(=O)[C@H](CCCCN)NC(=O)[C@H](CC(=O)O)NC1=O` [Example 7] (H-CSSL[Nle]DKECHLDIIW-OH; disulfide 1-9), 3520 nM; that for `CC[C@H](C)[C@H](NC(=O)[C@H](CC(=O)O)NC(=O)[C@H](CC(C)C)NC(=O)[C@H](Cc1c[nH]cn1)NC(=O)[C@@H]1CSSC[C@H](N)C(=O)N[C@@H](CO)C(=O)N[C@H]2CSSC[C@H](NC(=O)[C@H](CCC(=O)O)NC(=O)[C@H](CCCCN)NC(=O)[C@H](CC(=O)O)NC(=O)CNC(=O)[C@H](CC(C)C)NC(=O)[C@H](CO)NC(=O)[C@H](CO)NC2=O)C(=O)N[C@@H](C(C)C)C(=O)N[C@@H](Cc2ccc(O)cc2)C(=O)N[C@@H](Cc2ccccc2)C(=O)N1)C(=O)N[C@H](C(=O)N[C@@H](Cc1c[nH]c2ccccc12)C(=O)O)[C@@H](C)CC` [Example 2, (Gly-7)--ET1 derivative] (H-CSCSSLGDKECVYFCHLDIIW-OH; disulfide 1-15, 3-11), 1.4 nM.
The same measure for `CCCC[C@H](NC(=O)[C@H](CC(C)C)NC(=O)[C@H](CO)NC(=O)[C@H](CO)NC(=O)[C@@H](N)CS)C(=O)N[C@@H](CC(=O)O)C(=O)N[C@@H](CCCCN)C(=O)N[C@@H](CCC(=O)O)C(=O)N[C@@H](CS)C(=O)N[C@@H](Cc1c[nH]cn1)C(=O)N[C@@H](CC(C)C)C(=O)N[C@@H](CC(=O)O)C(=O)N[C@H](C(=O)N[C@H](C(=O)N[C@@H](Cc1c[nH]c2ccccc12)C(=O)O)[C@@H](C)CC)[C@@H](C)CC` [Example 8] (H-CSSL[Nle]DKECHLDIIW-OH): 5350 nM.

(Values after patent US5510331A, “Antihypertensive peptides” (Roussel UCLAF, priority 1990, dated 1996).)
